Laboratory results as given in PMC5500991, “Substituted arylsulphonamides as inhibitors of perforin-mediated lysis” (European Journal of Medicinal Chemistry, 2017).

Columns and labels:
[1] = molecular target: T1, perforin delivered by KHYG1 NK cells (Homo sapiens, UniProt P14222); assay: KHYG1 inhibitory assay: lysis of 51Cr-labelled K562 target cells by KHYG1 NK cells; format: cell-based; conditions: 51Cr-labelled K562 target cells co-incubated with KHYG1 human NK cells, vs untreated control, n = 4
T1 construct: The use of whole NK cells to deliver perforin provides a more realistic model of conditions in vivo; endogenous in cells; host or cells: KHYG1 human NK cells (effector); K562 leukemia target cells
T1 sequence (P14222 22-555): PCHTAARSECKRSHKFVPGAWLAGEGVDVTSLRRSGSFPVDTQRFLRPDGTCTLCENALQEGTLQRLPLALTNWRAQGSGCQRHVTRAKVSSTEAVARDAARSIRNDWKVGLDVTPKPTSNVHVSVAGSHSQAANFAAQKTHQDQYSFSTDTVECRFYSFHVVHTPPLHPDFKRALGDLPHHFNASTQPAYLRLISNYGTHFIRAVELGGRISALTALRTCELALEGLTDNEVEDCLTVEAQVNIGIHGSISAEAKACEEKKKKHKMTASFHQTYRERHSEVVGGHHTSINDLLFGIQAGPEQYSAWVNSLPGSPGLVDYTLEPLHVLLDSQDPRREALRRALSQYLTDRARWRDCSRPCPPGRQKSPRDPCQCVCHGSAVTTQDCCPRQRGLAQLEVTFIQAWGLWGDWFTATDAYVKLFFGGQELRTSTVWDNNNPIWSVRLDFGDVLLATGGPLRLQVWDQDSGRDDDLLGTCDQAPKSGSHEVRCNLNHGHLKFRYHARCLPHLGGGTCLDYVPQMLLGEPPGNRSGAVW
Description: The inhibitory function is then determined by identifying the number of untreated or inhibitor treated effector cells required to kill the same number of targets.

[2] = set-up: method as in PMID 28110869; conditions: sodium salt in water at room temperature; cited from earlier work
[3] = set-up: method as in PMID 28110869; conditions: sodium salt, 24 h at 20 °C in water; cited from earlier work
[4] = Toxicity to KHYG1 NK cells (Trypan blue exclusion); format: cell-based, human; conditions: human, viability of KHYG1 NK cells after 24 h, n = 3
Description: The toxicity assay was carried out in exactly the same manner as the killing assay above, but instead of adding the labelled K562 target cells, 100 μL of RPMI 0.1% BSA was added. Cells were incubated for 4 h at 37 °C and then washed ×3 in RPMI + 0.1% BSA. […] Trypan blue was added to each well. Viable (clear) cells and total (clear + blue) cells were counted, and the percentage of viable cells was calculated compared to DMSO treated cell control (% viability).

[5] = set-up: method as in PMID 28110869; conditions: parent remaining after 30 min, rat microsomes; cited from earlier work
[6] = In vivo plasma pharmacokinetics in mice; conditions: mouse plasma, 10 mg/kg i.p. in 20% hydroxypropyl-β-cyclodextrin
Description: The in vivo PK parameters were measured for seven compounds selected on the basis of the in vitro assessment described above. Plasma pharmacokinetics were determined in male CD-1 mice for compounds 3, 10, 11, 26, 50, 58 and 59 (Table 6). Blood samples were collected at 5–8 time-points after dosing the compounds at 10 mg/kg in a solution of 20% hydroxypropyl-β-cyclodextrin by intraperitoneal (IP) injection. For analysis of the samples, chromatographic conditions were optimised by HPLC for each compound of interest and an internal standard. A liquid chromatography with tandem mass spectrometry (LC-MS/MS) method was then developed and validated for quantitation of each analyte.
PK studies were carried out in female C57BL/6J (female) mice using IP administration of test compound, dosing at 10 mg/kg in a solution of 20% hydroxypropyl-β-cyclodextrin. Mice (n=3 at each time point) were culled with excess inhalation of CO2 and blood collected by cardiac puncture at 5-8 time points after dosing in ice cold EDTA tubes. Plasma was separated by centrifuging at 6000 rpm for 5 min and stored at -80°C until analysis by LC-MS/MS. Frozen plasma was thawed on wet ice on the day of analysis. Ten μL of sample was transferred to a clean microcentrifuge tube and mixed with ice cold acetonitrile (40 μL containing internal standard) to precipitate the plasma proteins. The tubes were centrifuged at 13000 rpm for 5 min to obtain a clear supernatant which was mixed with 0.01% formic acid-water (1:2). Ten to twenty µL was injected into the LC-MS/MS to measure the analyte concentration in the sample. The samples were quantitated against a calibration curve of known analyte concentrations run in test species blank plasma (sourced from Innovative Research, USA). The concentration vs time data was then fitted into a pharmacokinetic software program (Phoenix WinNonlin v6.2) to calculate the PK parameters including T½, Cmax and AUC0-∞.

## CN1Cc2cc(-c3ccc(-c4cncc(NS(=O)(=O)c5ccc(F)cc5F)c4)s3)ccc2C1=O [Compound 3]
[1]
  inhibition at 10 µM: 67.5 ± 17.5%
[2]
  Solubility: 1080 µg/mL
[3]
  Stability in Solution (% parent remaining): 82%
[4]
  viability at 24 h, 10 µM: 100%
[5]
  Microsome Stability (%) Rat: 99%
[6]
  AUC0-∞: 220 µM·h
  Cmax: 10 µM
  T1/2: 12.0 h
